The melting point is the temperature, or range, at which the solid turns liquid. Broadly, the IC50 is the concentration at which inhibition is half-maximal. A low value points to greater potency in that assay.

This note sets out measurements from patent US8536166B2, “Inhibitors of Burton's tyrosine kinase” (Roche Palo Alto LLC, priority 2008, dated 2013).

The target of series [1] is Btk enzyme (His-tagged, full-length) (Homo sapiens (Human), UniProt Q06187). As to the kind of experiment: Bruton's Tyrosine Kinase (Btk) Inhibition Assay. In kind it is biochemical. The following applies: 33P filtration capture assay, 100 μM ATP, 30 μM biotinylated peptide substrate. From the text:
The assay is a capture of radioactive ^33P phosphorylated product through filtration. The interactions of Btk, biotinylated SH2 peptide substrate (Src homology), and ATP lead to phosphorylation of the peptide substrate. Biotinylated product is bound streptavidin sepharose beads. All bound, radiolabeled products are detected by scintillation counter.
Plates assayed are 96-well polypropylene (Greiner) and 96-well 1.2 μm hydrophilic PVDF filter plates (Millipore). Concentrations reported here are final assay concentrations: 10-100 μM compounds in DMSO (Burdick and Jackson), 5-10 nM Btk enzyme (His-tagged, full-length), 30 μM peptide substrate (Biotin-Aca-AAAEEIYGEI-NH2), 100 μM ATP (Sigma), 8 mM imidazole (Sigma, pH 7.2), 8 mM glycerol-2-phosphate (Sigma), 200 μM EGTA (Roche Diagnostics), 1 mM MnCl2 (Sigma), 20 mM MgCl2 (Sigma), 0.1 mg/ml BSA (Sigma), 2 mM DTT (Sigma), 1 μCi ^33P ATP (Amersham), 20% streptavidin sepharose beads (Amersham), 50 mM EDTA (Gibco), 2 M NaCl (Gibco), 2 M NaCl w/1% phosphoric acid (Gibco), microscint-20 (Perkin Elmer).
IC50 determinations are calculated from 10 data points per compound utilizing data produced from a standard 96-well plate assay template. One control compound and seven unknown inhibitors were tested on each plate and each plate was run twice. Typically, compounds were diluted in half-log starting at 100 μM and ending at 3 nM. The control compound was staurosporine. Background was counted in the absence of peptide substrate. Total activity was determined in the presence of peptide substrate. The following protocol was used to determine Btk inhibition. • 1) Sample preparation: The test compounds were diluted at half-log increments in assay buffer (imidazole, glycerol-2-phosphate, EGTA, MnCl2, MgCl2, BSA). • 2) Bead preparation • a.) rinse beads by centrifuging at 500 g • b.) reconstitute the beads with PBS and EDTA to produce a 20% bead slurry • 3) Pre-incubate reaction mix without substrate (assay buffer, DTT, ATP, ^33P ATP) and mix with substrate (assay buffer, DTT, ATP, ^33P ATP, peptide substrate) 30° C. for 15 mm. • 4) To start assay, pre-incubate 10 μL Btk in enzyme buffer (imidazole, glycerol-2-phosphate, BSA) and 10 μL of test compounds for 10 min at RT. • 5) Add 30 μL reaction mixture without or with substrate to Btk and compounds. • 6) Incubate 50 μL total assay mix for 30 min at 30° C. • 7) Transfer 40 μL of assay to 150 μL bead slurry in filter plate to stop reaction. • 8) Wash filter plate after 30 min, with following steps • a. 3×250 μL NaCl • b. 3×250 μL NaCl containing 1% phosphoric acid • c. […]

Chain of Btk enzyme (His-tagged, full-length) (Q06187 whole entry): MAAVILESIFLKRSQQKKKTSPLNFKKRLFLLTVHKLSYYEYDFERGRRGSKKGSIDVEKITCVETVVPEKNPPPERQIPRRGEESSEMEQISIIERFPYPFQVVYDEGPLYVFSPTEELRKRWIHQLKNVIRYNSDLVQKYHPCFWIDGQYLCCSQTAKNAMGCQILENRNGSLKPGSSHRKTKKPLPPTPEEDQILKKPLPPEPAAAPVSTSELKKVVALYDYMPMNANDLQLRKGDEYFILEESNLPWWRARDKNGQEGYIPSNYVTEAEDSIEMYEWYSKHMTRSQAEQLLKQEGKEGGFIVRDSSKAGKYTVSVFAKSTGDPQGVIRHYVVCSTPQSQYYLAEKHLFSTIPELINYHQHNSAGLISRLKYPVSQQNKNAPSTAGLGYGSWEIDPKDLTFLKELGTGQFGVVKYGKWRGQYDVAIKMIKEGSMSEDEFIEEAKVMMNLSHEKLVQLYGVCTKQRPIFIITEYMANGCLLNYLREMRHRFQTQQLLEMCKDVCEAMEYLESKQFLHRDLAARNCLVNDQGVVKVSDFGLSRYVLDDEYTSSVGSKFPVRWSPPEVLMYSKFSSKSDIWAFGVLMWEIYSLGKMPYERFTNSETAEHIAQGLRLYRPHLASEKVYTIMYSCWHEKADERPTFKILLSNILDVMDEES

`CN(C)c1ccc2c(c1)CCN(c1cccc(-c3cn(C)c(=O)c(Nc4ccc5c(c4)OC(F)(F)O5)n3)c1CO)C2=O` [II-1, 2-{3-[6-(2,2-Difluoro-benzo[1,3]dioxol-5-ylamino)-4-methyl-5-oxo-4,5-dihydro-pyrazin-2-yl]-2-hydroxymethyl-phenyl}-6-dimethylamino-3,4-dihydro-2H-isoquinolin-1-one]: the melting point fell in the range of 145 to 150 °C.

As to `Cn1cc(Nc2nc(-c3cccc(N4CCc5cc(C6CC6)ccc5C4=O)c3CO)cn(C)c2=O)cn1` [II-5, 6-Cyclopropyl-2-{2-hydroxymethyl-3-[4-methyl-6-(1-methyl-1H-pyrazol-4-ylamino)-5-oxo-4,5-dihydro-pyrazin-2-yl]-phenyl}-3,4-dihydro-2H-isoquinolin-1-one], the IC50 in series [1] is 16 nM. The same measure, in the same setting: in the case of `CN(C)C(=O)c1ccc(Nc2nc(-c3cccc(N4CCc5cc(C6CC6)ccc5C4=O)c3CO)cn(C)c2=O)cc1` [II-6, 4-{6-[3-(6-Cyclopropyl-1-oxo-3,4-dihydro-1H-isoquinolin-2-yl)-2-hydroxymethyl-phenyl]-4-methyl-3-oxo-3,4-dihydro-pyrazin-2-ylamino}-N,N-dimethyl-benzamide] it was 15 nM. Regarding `Cn1cc(-c2cccc(N3CCc4cc(C5CC5)ccc4C3=O)c2CO)nc(Nc2ccc(C(=O)N3CCCC3)cc2)c1=O` [II-10, 6-Cyclopropyl-2-(2-hydroxymethyl-3-{4-methyl-5-oxo-6-[4-(pyrrolidine-1-carbonyl)-phenylamino]-4,5-dihydro-pyrazin-2-yl}-phenyl)-3,4-dihydro-2H-isoquinolin-1-one], the melting point fell in the range of 178 to 180 °C.

`Cn1cc(-c2cccc(N3CCc4cc(C5(F)CC5)ccc4C3=O)c2CO)nc(Nc2ccc(C(=O)N3CCOCC3)cc2)c1=O` [II-11, 6-(1-Fluoro-cyclopropyl)-2-(2-hydroxymethyl-3-{4-methyl-6-[4-(morpholine-4-carbonyl)-phenylamino]-5-oxo-4,5-dihydro-pyrazin-2-yl}-phenyl)-3,4-dihydro-2H-isoquinolin-1-one] displayed a melting point of 172 to 174 °C. The molecule further gave an IC50 in series [1] of 10 nM.

The molecule `Cn1cc(-c2cccc(N3CCc4cc(C5CC5)ccc4C3=O)c2CO)nc(Nc2ccc(C(=O)N3CCC(O)CC3)cc2)c1=O` [II-12, 6-Cyclopropyl-2-(2-hydroxymethyl-3-{6-[4-(4-hydroxy-piperidine-1-carbonyl)-phenylamino]-4-methyl-5-oxo-4,5-dihydro-pyrazin-2-yl}-phenyl)-3,4-dihydro-2H-isoquinolin-1-one] yielded a melting point of 171 to 173 °C. The IC50 in series [1] was determined as 10 nM. With `COC1CCN(C(=O)c2ccc(Nc3nc(-c4cccc(N5CCc6cc(C7CC7)ccc6C5=O)c4CO)cn(C)c3=O)cc2)CC1` [II-13, 6-Cyclopropyl-2-(2-hydroxymethyl-3-{6-[4-(4-methoxy-piperidine-1-carbonyl)-phenylamino]-4-methyl-5-oxo-4,5-dihydro-pyrazin-2-yl}-phenyl)-3,4-dihydro-2H-isoquinolin-1-one], the melting point lay within 146 to 148 °C. On the same count and under the same terms, for `CN1CCN(C(=O)c2ccc(Nc3nc(-c4cccc(N5CCc6cc(C7CC7)ccc6C5=O)c4CO)cn(C)c3=O)cc2)CC1` [II-14, 6-Cyclopropyl-2-(2-hydroxymethyl-3-{4-methyl-6-[4-(4-methyl-piperazine-1-carbonyl)-phenylamino]-5-oxo-4,5-dihydro-pyrazin-2-yl}-phenyl)-3,4-dihydro-2H-isoquinolin-1-one] the value was 172 to 175 °C; for `CN(CCO)C(=O)c1ccc(Nc2nc(-c3cccc(N4CCc5cc(C6CC6)ccc5C4=O)c3CO)cn(C)c2=O)cc1` [II-15, 4-{6-[3-(6-Cyclopropyl-1-oxo-3,4-dihydro-1H-isoquinolin-2-yl)-2-hydroxymethyl-phenyl]-4-methyl-3-oxo-3,4-dihydro-pyrazin-2-ylamino}-N-(2-hydroxy-ethyl)-N-methyl-benzamide], 115 to 117 °C; for `Cn1cc(-c2cccc(N3CCc4cc(C5CC5)ccc4C3=O)c2CO)nc(Nc2ccc(C(=O)N3CCN(CCO)CC3)cc2)c1=O` [II-16, 6-Cyclopropyl-2-[3-(6-{4-[4-(2-hydroxy-ethyl)-piperazine-1-carbonyl]-phenylamino}-4-methyl-5-oxo-4,5-dihydro-pyrazin-2-yl)-2-hydroxymethyl-phenyl]-3,4-dihydro-2H-isoquinolin-1-one], 175 to 180.1 °C. On to `CC1CN(C(=O)c2ccc(Nc3nc(-c4cccc(N5CCc6cc(C7CC7)ccc6C5=O)c4CO)cn(C)c3=O)cc2)CC(C)O1` (centres unmarked) [II-17, 6-Cyclopropyl-2-(3-{6-[4-(2,6-dimethyl-morpholine-4-carbonyl)-phenylamino]-4-methyl-5-oxo-4,5-dihydro-pyrazin-2-yl}-2-hydroxymethyl-phenyl)-3,4-dihydro-2H-isoquinolin-1-one], for which the melting point was 173 to 175 °C. The same measure, in the same setting: in the case of `CCN1CCN(C(=O)c2ccc(Nc3nc(-c4cccc(N5CCc6cc(C7CC7)ccc6C5=O)c4CO)cn(C)c3=O)cc2)CC1` [II-20, 6-Cyclopropyl-2-(3-{6-[4-(4-ethyl-piperazine-1-carbonyl)-phenylamino]-4-methyl-5-oxo-4,5-dihydro-pyrazin-2-yl}-2-hydroxymethyl-phenyl)-3,4-dihydro-2H-isoquinolin-1-one] it was 153 to 155 °C.
